Structures are written as SMILES.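 Following 48 hours of exposure in 96-well plates, responses at five concentrations were used to interpolate endpoints linearly. TGI is the concentration that stops growth completely.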 Where a SMILES comes first, the peptide text is derived from it. The star is where a group is joined. Boc = CC(C)(C)OC(=O)*; tBu = CC(C)(C)*

Holding throughout (assay): inhibition of tumour cell growth, NCI panel, 48 h
The test system of experiment [1] is A498 renal.
Experiment [2] relates to SF-295 CNS.
Experiment [3] deals with NCI/ADR-RES ovarian.
In experiment [4] the test system is IGROV1 ovarian.
Experiment [5] deals with TK-10 renal.
Experiment [6] concerns A549 NSCLC.
Experiment [7] concerns EKVX NSCLC.
Experiment [8] relates to SN12C renal.
Experiment [9] has as its system HCT-15 colon.
For experiment [10], the system named is MOLT-4 leukemia.

As for `CC(C)(CC1(C)NC(=O)NC1=O)OCc1ccccc1` (configuration not stated), the TGI in experiment [1], in experiment [2], in experiment [3], in experiment [4], in [5] and in experiment [6] was over 100 µM each time. Moreover, the TGI in experiment [7], in [8] and in experiment [9] was over 100 µM in each case.

As for `Cc1cc(NS(=O)(=O)c2ccc(NC(=O)c3ccc4nc5ccccc5c(Nc5ccc(S(=O)(=O)Nc6cc(C)on6)cc5)c4c3)cc2)no1`, the TGI in [2], in experiment [10], in [3], in [4], in [5] and in experiment [6] was over 50 µM throughout. In addition, the TGI in experiment [7], in experiment [8] and in [9] was over 50 µM throughout.

For `COc1ccc2nc(-c3ccc(O)cc3)ccc2c1`, the TGI in [2], in experiment [10], in experiment [4], in [5], in [6] and in experiment [7] was over 100 µM in each case. In addition, the TGI in [8] was over 100 µM.

Turning to `CSc1nc(C)cc(=O)n1C1OC(COC(C)=O)C(OC(C)=O)C(OC(C)=O)C1OC(C)=O` (configuration not stated), the TGI in [1], in experiment [2], in experiment [10], in experiment [4], in [5] and in experiment [6] was over 100 µM throughout. Besides, the TGI in experiment [7], in experiment [8] and in experiment [9] was over 100 µM each time.

Regarding `O[C@]12c3ccccc3C1CCCCC2N1CCOCC1` (some centres not stated), the TGI in experiment [2], in experiment [5], in [6], in experiment [7], in experiment [8] and in experiment [9] was over 100 µM each time.

Turning to `CCOC(=O)[C@@H]1C[C@@H]1c1ccc(O)c(O)c1`, the TGI in experiment [2] was over 100 µM; in experiment [10] it was 22.5 µM; in [3], over 100 µM; in experiment [4] it was over 100 µM; in experiment [5] it was over 100 µM; in [6], over 100 µM. Besides, the TGI in experiment [7], in experiment [8] and in [9] was over 100 µM each time.

For the molecule `OC1CSCCSCCCSCCSC1`, the TGI in experiment [1], in [2], in [10], in experiment [4], in experiment [5] and in experiment [6] was over 100 µM each time. For the same molecule, the TGI in experiment [7], in experiment [8] and in experiment [9] was over 100 µM throughout.

Take `COc1cccc2c1[C@H]1OC(=O)NC1CCCCC2` (some centres not stated): the TGI in experiment [1], in [2], in experiment [10], in [4], in experiment [5] and in experiment [6] was over 100 µM each time. Moreover, the TGI in experiment [7], in [8] and in [9] was over 100 µM each time.

In the case of `CCN(CCCl)c1cc(CN(C)C)cc(NC(=O)c2cc(C(=O)Nc3cc(CN(C)C)cc(N(CC)CCCl)c3)n(C)n2)c1`, the TGI in experiment [1] came to 4.41 µM; in experiment [2], 2.24 µM; in [10], 0.164 µM; in experiment [3] it was 32.3 µM; in [4], 0.38 µM; in experiment [5], 6.17 µM. For the same molecule, the results for the TGI in experiment [6], in [8] and in [9] were 1.8 µM, 2.01 µM and 10.5 µM, respectively.

As for `N=C(N)c1ccc(N=Nc2c(O)ccc3cc(O)ccc23)cc1`, the TGI in experiment [2], in [10], in experiment [3], in [4], in experiment [5] and in [6] was over 100 µM in each case. The TGI in experiment [7] and in experiment [9] was over 100 µM each time.

Consider `Nc1ncnc2c1ncn2CCOC(c1ccccc1)P(=O)(O)O` (configuration not stated), for which the TGI in experiment [1], in experiment [2], in [10], in [4], in [5] and in experiment [6] was over 100 µM in each case. For the same molecule, the TGI in experiment [7], in [8] and in [9] was over 100 µM in each case.

As to `O=C(NN1C(=O)C(Cl)C1c1c(O)ccc2ccccc12)c1ccccc1O` (configuration not stated), the TGI in experiment [1], in experiment [2], in [10], in experiment [4], in experiment [5] and in experiment [6] was over 100 µM in each case. Also, the TGI in [8] and in experiment [9] was over 100 µM in each case.

Consider `CC(OC(C)(C)C)C(NC(=O)C(N)CCCCNC(=O)OC(C)(C)C)C(=O)NC(Cc1ccccc1)C(=O)O` (configuration not stated) (H-Lys(Boc)-Thr(tBu)-Phe-OH; configuration not given here), for which the TGI in [2], in experiment [10], in [3], in experiment [4], in [5] and in experiment [6] was over 100 µM each time. In addition, the TGI in experiment [7], in experiment [8] and in experiment [9] was over 100 µM each time.

Regarding `CSC1(Cc2ccccn2)C(=O)Nc2cccc([N+](=O)[O-])c21` (configuration not stated), the TGI in experiment [2], in experiment [10], in experiment [3], in [4], in experiment [5] and in experiment [6] was over 100 µM each time. Moreover, the TGI in experiment [7], in experiment [8] and in experiment [9] was over 100 µM in each case.

Take `CCOC(=O)C(C)(Cc1ccc(O)cn1)NC(=O)c1ccccc1` (configuration not stated): the TGI in [2], in experiment [10], in experiment [3], in experiment [4], in experiment [5] and in experiment [6] was over 100 µM in each case. Further, the TGI in [7] and in [9] was over 100 µM in each case.

Values taken from PubChem BioAssay (NCI).
